How the values were obtained:
[1] = target: human CARM1 (PRMT4) (Homo sapiens (Human), UniProt Q86X55); experiment: CARM1 enzyme assay on peptide substrate (3H-SAM Flashplate); details: Biochemical potencies, read-out: Biochem IC50
Text: S-adenosylmethionine (SAM), S-adenosylhomocysteine (SAH), bicine, Tween20, dimethylsulfoxide (DMSO), bovine skin gelatin (BSG), sodium butyrate and Tris(2-carboxyethyl)phosphine hydrochloride solution (TCEP) were purchased from Sigma-Aldrich at the highest level of purity possible. ^3H-SAM was purchase from American Radiolabeled Chemicals with a specific activity of 80 Ci/mmol. 384-well streptavidin Flashplates were purchased from PerkinElmer.
Peptide representative of human histone H3 residues 16-30 was synthesized with an N-terminal linker-affinity tag motif and a C-terminal amide cap by 21st Century Biochemicals. […] The sequence was Biot-Ahx-[…]-amide and contained a monomethylated arginine at position 26 (SEQ ID NO.:1).
The gene sequence encoding isoform 1 containing a deletion of amino acids 539-561 was amplified subsequently and subcloned into pFastBacMam (Viva Biotech).
Recombinant baculovirus were generated according to Bac-to-Bac kit instructions (Life Technologies). Protein over-expression was accomplished by infecting exponentially growing HEK 293F cell culture at 1.3×10^6 cell/ml with virus (MOI=10) in the presence of 8 mM sodium butyrate. Infections were carried out at 37° C. for 48 hours, harvested by centrifugation, and stored at −80° C. for purification.
Expressed full-length human Flag- and His-tagged CARM1 protein was purified from cell paste by anti-flag M2 affinity chromatography with resin equilibrated with buffer containing 20 mM Tris, 150 mM NaC, 5% glycerol, pH 7.8. Column was washed with 500 mM NaCl in buffer A and Flag-CARM1-His was eluted with 200 ug/ml FLAG peptide in buffer A. Pooled fractions were dialyzed in 20 mM Tris, 150 mM NaCl, 5% glycerol and 1 mM DTT, pH 7.8.
The assays were all performed in a buffer consisting of 20 mM Bicine (pH=7.6), 1 mM TCEP, 0.005% BSG, and 0.002% Tween 20, prepared on the day of use. Compounds in 100% DMSO (1 ul) were spotted into a polypropylene 384-well V-bottom plates (Greiner) using a Platemate Plus outfitted with a 384-channel head (Thermo Scientific). DMSO (1 ul) was added to Columns 11, 12, 23, 24, rows A-H for the maximum signal control and 1 ul of SAH, a known product and inhibitor of CARM1, was added to columns 11, 12, 23, 24, rows I-P for the minimum signal control. A cocktail (40 ul) containing the CARM1 enzyme was added by Multidrop Combi (Thermo-Fisher). The compounds were allowed to incubate with CARM1 for 30 min at room temperature, then a cocktail (10 ul) containing ^3H-SAM and peptide was added to initiate the reaction (final volume=51 ul). The final concentrations of the components were as follows: CARM1 was 0.25 nM, ^3H-SAM was 30 nM, peptide was 250 nM, SAH in the minimum signal control wells was 1 mM, and the DMSO concentration was 2%. The assays were stopped by the addition of non-radiolabeled SAM (10 ul) to a final concentration of 300 uM, which dilutes the ^3H-SAM to a level where its incorporation into the peptide substrate is no longer detectable. 50 ul of the reaction in the 384-well polypropylene plate was then transferred to a 384-well Flashplate and the biotinylated peptides were allowed to bind to the streptavidin surface for at least 1 hour before being washed once with 0.1% Tween20 in a Biotek ELx405 plate washer. The plates were then read in a PerkinElmer TopCount plate reader to measure the quantity of ^3H-labeled peptide bound to the Flashplate surface, measured as disintegrations per minute (dpm) or alternatively, referred to as counts per minute (cpm).
The Hill Coefficient normally allowed to float but may also be fixed at 1 in a 3-parameter fit.

[2] = tested on: asymmetric di-methyl PABP1 in RKO cells; experiment: RKO methylation assay, In Cell Western (ICW) for asymmetric di-methyl PABP1; type: cell-based; details: Homo sapiens, RKO, Cellular potencies, ICW PABP1me2a
Outline: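 RKO cells treated with compound for 48 h at 37 °C, then fixed, permeabilized and immunostained for asymmetric di-methyl PABP1, with DRAQ5 as DNA stain. Infrared 700/800 nm signal ratio normalized to DMSO and 20 μM reference-compound controls; IC50 from triplicate wells.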

Sequence of human CARM1 (PRMT4) (Q86X55 other isoform, or with tags, fused parts or gaps isoform Q86X55-1): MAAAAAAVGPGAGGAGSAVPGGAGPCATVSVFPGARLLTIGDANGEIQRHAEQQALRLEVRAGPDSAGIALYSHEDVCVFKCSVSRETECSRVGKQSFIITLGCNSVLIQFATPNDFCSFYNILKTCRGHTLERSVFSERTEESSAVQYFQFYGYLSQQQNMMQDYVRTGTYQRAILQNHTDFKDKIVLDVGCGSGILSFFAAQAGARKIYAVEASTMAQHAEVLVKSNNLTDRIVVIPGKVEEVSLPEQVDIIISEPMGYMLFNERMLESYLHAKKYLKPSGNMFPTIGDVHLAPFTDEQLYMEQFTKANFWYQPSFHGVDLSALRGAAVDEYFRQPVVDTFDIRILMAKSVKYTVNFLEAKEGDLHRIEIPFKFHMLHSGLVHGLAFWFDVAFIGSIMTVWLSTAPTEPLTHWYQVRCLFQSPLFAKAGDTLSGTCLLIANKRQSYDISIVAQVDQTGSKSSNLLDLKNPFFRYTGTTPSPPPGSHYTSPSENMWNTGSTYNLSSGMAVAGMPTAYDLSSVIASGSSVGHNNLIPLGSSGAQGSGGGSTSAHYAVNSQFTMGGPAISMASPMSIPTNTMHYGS

CNCC(O)COc1cccc(-c2nccc(-c3c(C)noc3C)n2)c1 (centres unmarked) [Example 2-1a]
IC50 [1]: 0.1 to 1 µM | IC50 [2]: 10 to 20 µM

NCC(O)COc1cccc(-c2cc(N3CCOCC3)nc(N3CCOCC3)n2)c1 (centres unmarked) [Example 7-2]
IC50 [1]: 0.1 to 1 µM

CNCC(O)COc1cccc(-c2nc(NC3CCOCC3)cc(N(C)C)n2)c1 (centres unmarked) [Example 8-1]
IC50 [1]: 0.1 to 1 µM

CNCC(O)COc1cccc(-c2cc(C3CCOCC3)nc(N[C@H]3CCOC3)n2)c1 (some centres unmarked) [Example 10-2]
IC50 [1]: 0.1 to 1 µM

CNCC(O)COc1cccc(-c2nc(NC3COC3)cc(-c3c(C)noc3C)n2)c1 (centres unmarked) [Example 22-1a]
IC50 [1]: 0.1 to 1 µM | IC50 [2]: 10 to 20 µM

CNCC(O)COc1cccc(-c2nc(NC3CCOC3=O)cc(-c3c(C)noc3C)n2)c1 (centres unmarked) [Example 24-1a]
IC50 [1]: 0.1 to 1 µM

CNCC(O)COc1cccc(-c2nc(-c3c(C)noc3C)c(C)c(-c3c(C)noc3C)n2)c1 (centres unmarked) [Example 25-1a]
IC50 [1]: 0.1 to 1 µM | IC50 [2]: 10 to 20 µM

CNCC(O)COc1cccc(-c2nc(-c3c(C)n[nH]c3C)c(C)c(-c3c(C)noc3C)n2)c1 (centres unmarked) [Example 26-1a]
IC50 [1]: 1 to 3 µM | IC50 [2]: 10 to 20 µM

CNCC(O)COc1cccc(-c2nc(-c3ccn4cnnc4c3)c(C)c(-c3c(C)noc3C)n2)c1 (centres unmarked) [Example 37-1a]
IC50 [1]: 0.1 to 1 µM | IC50 [2]: 10 to 20 µM

CNCC(O)COc1cccc(-c2nc(C(=O)N(C)CC3CCOCC3)cc(-c3c(C)noc3C)n2)c1 (centres unmarked) [Example 46-1a]
IC50 [1]: 0.1 to 1 µM | IC50 [2]: 10 to 20 µM

CNCC(O)COc1cccc(-c2nc(Nc3c(C)noc3C)cc(-c3c(C)noc3C)n2)c1 (centres unmarked) [Example 48-1a]
IC50 [1]: 1 to 3 µM | IC50 [2]: 10 to 20 µM

CCCCOc1nc(-c2ccc(F)c(OCC(O)CNC)c2)nc(-c2c(C)noc2C)c1C (centres unmarked) [Example 50-3]
IC50 [1]: 0.1 to 1 µM | IC50 [2]: ≥ 20 µM

CNCC(O)COc1cc(-c2nc(NC3CCOC(C)C3)c(C)c(-c3c(C)noc3C)n2)ccc1F (centres unmarked) [Example 51-3]
IC50 [1]: 0.1 to 1 µM | IC50 [2]: ≥ 20 µM

CNCC(O)COc1cccc(-c2nc(C(=O)NC3CCOCC3)cc(-c3c(C)noc3C)n2)c1 (centres unmarked) [Example 52-1a]
IC50 [1]: 0.1 to 1 µM | IC50 [2]: 10 to 20 µM

CNCC(O)COc1cc(-c2nc(NC3CCOCC3)c(C)c(-c3c(C)noc3C)n2)ccc1F (centres unmarked) [Example 52-3]
IC50 [1]: 0.1 to 1 µM | IC50 [2]: ≥ 20 µM

CNCC(O)COc1cccc(-c2nc(C(=O)NC3CCOCC3)c(C)c(-c3c(C)noc3C)n2)c1 (centres unmarked) [Example 62-1a]
IC50 [1]: 1 to 3 µM | IC50 [2]: 10 to 20 µM

CNCC(O)COc1cccc(-c2nc(C(=O)N(C)C)cc(-c3c(C)noc3C)n2)c1 (centres unmarked) [Example 63-1a]
IC50 [1]: 1 to 3 µM | IC50 [2]: 10 to 20 µM

CNCC(O)COc1cccc(-c2nc(-c3c(C)noc3C)cc(N(C)C(C)=O)n2)c1 (centres unmarked) [Example 64-1a]
IC50 [1]: 0.1 to 1 µM | IC50 [2]: 10 to 20 µM

CNCC(O)COc1cccc(-c2nc(C(=O)NCC3CCOCC3)cc(-c3c(C)noc3C)n2)c1 (centres unmarked) [Example 65-1a]
IC50 [1]: 0.1 to 1 µM | IC50 [2]: 10 to 20 µM

CNCC(O)COc1cccc(-c2nc(O)c(C)c(-c3c(C)noc3C)n2)c1 (centres unmarked) [Example 73-1a]
IC50 [1]: 0.1 to 1 µM | IC50 [2]: 10 to 20 µM

CNC[C@@H](O)COc1ccc(F)c(-c2nc(-c3c(C)noc3C)c(C)c(-c3c(C)noc3C)n2)c1 [Example 78-3]
IC50 [1]: 0.1 to 1 µM | IC50 [2]: ≥ 20 µM

CNCC(O)COc1cccc(-c2nc(NC3CCOCC3)c(C)c(-c3c(C)noc3C)n2)c1Cl (centres unmarked) [Example 79-3]
IC50 [1]: 3 to 10 µM | IC50 [2]: ≥ 20 µM

CNCC(O)COc1cccc(-c2nc(NC3CCOC(C)C3)c(C)c(-c3c(C)noc3C)n2)c1Cl (centres unmarked) [Example 80-3]
IC50 [1]: 0.1 to 1 µM | IC50 [2]: ≥ 20 µM

CNC[C@H](O)COc1ccc(F)c(-c2nc(-c3c(C)noc3C)c(C)c(-c3c(C)noc3C)n2)c1 [Example 81-3]
IC50 [1]: 1 to 3 µM | IC50 [2]: ≥ 20 µM

CNCC(O)COc1cccc(-c2nc(OC)c(C)c(-c3c(C)noc3C)n2)c1 (centres unmarked) [Example 83-1a]
IC50 [1]: 0.1 to 1 µM | IC50 [2]: 10 to 20 µM

CNCC(O)COc1cccc(-c2nc(NC3CCN(C(=O)OC)CC3)c(C)c(-c3c(C)noc3C)n2)c1Cl (centres unmarked) [Example 107-3]
IC50 [1]: 3 to 10 µM | IC50 [2]: ≥ 20 µM

CNCC(O)COc1cccc(-c2nc(NC3(C(=O)NC)CCOC3)c(C)c(-c3c(C)noc3C)n2)c1 (centres unmarked) [Example 113-1a]
IC50 [1]: 3 to 10 µM | IC50 [2]: 10 to 20 µM

CNCC(O)COc1cccc(-c2nc(Nc3c(C)nn(C)c3C)cc(-c3c(C)noc3C)n2)c1 (centres unmarked) [Example 122-1a]
IC50 [1]: 1 to 3 µM | IC50 [2]: 10 to 20 µM

CNCC(O)COc1cccc(-c2nc(-c3c(C)noc3C)c(C)c(N3CCO[C@@H](CO)C3)n2)c1 (some centres unmarked) [Example 123-1a]
IC50 [1]: 0.1 to 1 µM | IC50 [2]: 5 to 10 µM

CNCC(O)COc1ccc(C)c(-c2nc(NC3CCOCC3)c(C)c(-c3c(C)noc3C)n2)c1 (centres unmarked) [Example 123-3]
IC50 [1]: 0.1 to 1 µM | IC50 [2]: 10 to 20 µM

CNCC(O)COc1cccc(-c2nc(-c3c(C)noc3C)c(C)c(N3CCO[C@H](CN(C)C(=O)N(C)C)C3)n2)c1 (some centres unmarked) [Example 128-1a]
IC50 [1]: 0.1 to 1 µM | IC50 [2]: 5 to 10 µM

CNCC(O)COc1cccc(-c2nc(-c3c(C)noc3C)c(C)c(-c3nc(C)cn3C)n2)c1 (centres unmarked) [Example 130-1a]
IC50 [1]: 0.1 to 1 µM | IC50 [2]: 10 to 20 µM

CNCC(O)COc1cccc(-c2nc(NC(C)C3CCOCC3)cc(-c3c(C)noc3C)n2)c1 (centres unmarked) [Example 158-1a]
IC50 [1]: 0.1 to 1 µM | IC50 [2]: 5 to 10 µM

CNCC(O)COc1ccc(C#N)c(-c2nc(NC3CCN(C(=O)OC)CC3)c(C)c(-c3c(C)noc3C)n2)c1 (centres unmarked) [Example 165-3]
IC50 [1]: 0.1 to 1 µM | IC50 [2]: ≥ 20 µM

CNCC(O)COc1ccc(C#N)c(-c2nc(NC3CCOCC3)c(C)c(-c3c(C)noc3C)n2)c1 (centres unmarked) [Example 166-3]
IC50 [1]: 0.1 to 1 µM | IC50 [2]: ≥ 20 µM

CNCC(O)COc1cccc(-c2nc(-c3c(C)noc3C)c(C)c(N3CCC[C@@H](N(C)C(=O)OC)C3)n2)c1 (some centres unmarked) [Example 180-1a]
IC50 [1]: 0.1 to 1 µM | IC50 [2]: 10 to 20 µM

COC(=O)N1CC[C@H](Nc2nc(-c3cc(OC[C@H](O)CN(C)C)ccc3Cl)nc(-c3c(C)noc3C)c2C)C[C@@H]1C [Example 193-3]
IC50 [1]: 0.1 to 1 µM | IC50 [2]: ≥ 20 µM

CNCC(O)COc1cccc(-c2nc(NC3CCOCC3)c(CO)c(-c3c(C)noc3C)n2)c1 (centres unmarked) [Example 213-1a]
IC50 [1]: 0.1 to 1 µM | IC50 [2]: 10 to 20 µM

CNCC(O)COc1cccc(-c2nc(NC3CCOCC3)c(C(F)F)c(-c3c(C)noc3C)n2)c1 (centres unmarked) [Example 214-1a]
IC50 [1]: 0.1 to 1 µM | IC50 [2]: 5 to 10 µM

CNCC(O)COc1cccc(-c2nc(N[C@H]3C[C@H](C(=O)O)C3)c(C)c(-c3c(C)noc3C)n2)c1 (some centres unmarked) [Example 222-1a]
IC50 [1]: 0.1 to 1 µM | IC50 [2]: 10 to 20 µM

CNCC(O)COc1cccc(-c2nc(N[C@H]3C[C@@H](C(=O)O)C3)c(C)c(-c3c(C)noc3C)n2)c1 (some centres unmarked) [Example 223-1a]
IC50 [1]: 1 to 3 µM | IC50 [2]: 10 to 20 µM

CNC[C@@H](O)COc1ccc(Cl)c(-c2nc(-c3c(C)noc3C)c(C)c(C3(C)CC3)n2)c1 [Example 262-3]
IC50 [1]: 0.1 to 1 µM | IC50 [2]: ≥ 20 µM

CNCC(O)COc1cccc(-c2nc(N[C@H]3CCOC3)c(C)c(-c3ccncc3)n2)c1 (some centres unmarked) [Example 333-1a]
IC50 [1]: 0.1 to 1 µM | IC50 [2]: 10 to 20 µM

CNCC(O)COc1cc(Cl)cc(-c2nc(N[C@@H]3CCOC3)c(C)c(C(=O)NCC3CCOCC3)n2)c1 (some centres unmarked) [Example 336-1a]
IC50 [1]: 0.1 to 1 µM | IC50 [2]: 10 to 20 µM

CNCC(O)COc1cccc(-c2nc(C(=O)NC3CCOCC3)c(C)c(C(=O)NC3CCOCC3)n2)c1 (centres unmarked) [Example 677-1a]
IC50 [2]: ≥ 20 µM

CCN(CC)c1nc(-c2cccc(OCC(O)CNC)c2)nc(N2CCOCC2)c1C (centres unmarked) [Example 682-1a]
IC50 [2]: ≥ 20 µM
